Results reported in PMC9053583, “A novel series of phenolic temozolomide (TMZ) esters with 4 to 5-fold increased potency, compared to TMZ, against glioma cells irrespective of MGMT expression” (RSC Advances, 2020).
Read-outs that look alike come from different tables or passages of the source.

Experiments:
U87-MG cells = assay: CellTiter-Glo cytotoxicity against U87-MG cells; assay type: cell-based; conditions: Homo sapiens, U-87 MG, 144 hours incubation, IC50 ± SD (n = 3)
Protocol: (§1) Apoptosis of glioma cells induced by TMZ, occurs at least 120 hours after treatment.[7] Consequently, cells were incubated for 144 hours with specified TMZ analogues in the in vitro investigations in order to obtain more reliable IC50 values.
(§2) 1321-N1 (human astrocytoma) was maintained in DMEM medium supplemented with 2 mM L-glutamine and 10% FBS. GOS-3, (human brain mixed astro-oligodendroglioma) was maintained in DMEM medium supplemented with 2 mM L-glutamine and 10% […]. U87-MG, (human glioblastoma) and SVGp12 (normal human astroglia) were maintained in EMEM medium supplemented with 2 mM L-glutamine, 1 mM sodium pyruvate and 10% FBS. All cell lines were incubated at 37 °C and 5% CO2 in a humidified incubator. Primary BTNW cultures were maintained in Ham's F10 nutrient mixture, containing 20 mM HEPES, 2 mM glutamine and 10% FBS. Primary cultures were incubated in a humidified incubator at 37 °C.
(§3) Cells were seeded in the appropriate media in each well of a Costar 96-well plate at a density of 5 × 10^2 immortalised cells; 2 × 10^3 (primary cells). The plates were incubated at 37 °C and 5% CO2 in a humidified incubator for 24 hours to allow cells to adhere. Each of the drugs tested were dissolved in DMSO to afford a 200 mM stock solution. The stock solutions were diluted with medium to afford the final working concentrations, ensuring DMSO concentration was no greater than 0.5% (v/v). Drug concentrations were added to the cells and incubated for 144 hours. After incubation, the drug concentrations were removed and replaced with 100 μL of CellTiter-Glo® and 100 μL of media. The luminescence of each well was measured on GENios Pro plate reader. The results for each of the drug concentrations were expressed as a percentage of the control wells. For cell lines, the regression equation for a polynomial line of best fit of order 2 was used to calculate the IC50. In the case of the in vitro model used in the present study, the IC50 was defined as the concentration of drug that results in a 50% reduction in oxyluciferin production. Primary culture cells were incubated with clinically relevant concentrations for 144 hours. Viability was expressed as a percentage of the control wells. Each experiment involving cell lines was carried out in triplicate of triplicates. Experiments using patient derived primary cultures were carried out in triplicate.
(§4) Initial screening of the 25 analogues was completed using the U87-MG cell line. The most promising analogues from the initial screening were taken forward and tested against the 1321-N1, GOS-3 and SVG-p12 cell lines. The results of all 4 cell lines were compiled and the analogues that were deemed to be the most promising drug candidates were tested against primary cultures at clinically relevant concentrations.

1321-N1 = assay: CellTiter-Glo cytotoxicity against 1321-N1 cells; assay type: cell-based; conditions: Homo sapiens, 144 hours incubation, IC50 ± SD (n = 3)
Protocol: as §1, §2, §3, §4

GOS-3 = assay: CellTiter-Glo cytotoxicity against GOS-3 cells; assay type: cell-based; conditions: Homo sapiens; 144 hours incubation, IC50 ± SD (n = 3)
Protocol: as §1, §2, §3, §4

SVGp12 = assay: CellTiter-Glo cytotoxicity against normal SVGp12 cell line; assay type: cell-based; conditions: Homo sapiens, 144 hours incubation, IC50 ± SD (n = 3)
Protocol: as §1, §2, §3, §4

BTNW914 (MGMT−) = assay: Cell viability of patient derived primary GBM culture BTNW914 (MGMT−); assay type: cell-based, human; conditions: 6 days incubation; for IC50: Homo sapiens, 144 h, read-out: IC50 against MGMT devoid GBM primary cells
Protocol: (§5) Fig. 2 (A) Cell viability of BTNW914 (MGMT−) after treatment by TMZ and phenyl TMZ ester analogues at various clinically relevant concentrations and incubation for 6 days. (B) Cell Viability of BTNW374 (MGMT+) after treatment by TMZ and phenyl TMZ ester analogues at various clinically relevant concentrations. Values are reported as the percentage of viable cells ± SD, n = 3.
(§6) Cytotoxic evaluation of the analogues was completed against 4 cell lines and 2 primary GBM cultures. The human glioma cell lines, GOS-3, U87-MG and 1321-N1 along with the human astroglial cell line, SVGp12, were purchased from The European Collection of Cell Cultures (ECCAC, UK) and Deutsche Sammlung von Mikroorganismen und Zellkulturen (DMSZ, Germany). Patient derived primary GBM cultures, BTNW374 and BTNW914, were obtained from The Brain Tumour North West Tissue Bank in collaboration with The Royal Preston Hospital. Patient data for primary cells was included as part of the ESI. ^†
as §2, §3

BTNW374 (MGMT+) = assay: Cell viability of patient derived primary GBM culture BTNW374 (MGMT+); assay type: cell-based, human
Protocol: as §5, §6, §2, §3

[1] = cited from earlier work
[2] = tested on: porcine liver esterase (PLE); assay: Stability of phenolic TMZ esters on exposure to porcine liver esterase; assay type: in vitro ADME; conditions: pH 6, 37 °C
Protocol: The hydrolysis was monitored by the decrease in the peak area of the corresponding TMZ esters, however, due to sensitivity of the imidazotetrazine ring to pH, the experiments were carried out at pH 6 to avoid the formation of imidazoles. The validation of the analytical method also involved investigating the stability of the imidazotetrazine ring whilst ensuring PLE retained a significant level of activity.
A disodium phosphate, citric acid buffer (pH 6) was prepared by using disodium phosphate (Na2HPO4·12H2O, 200 mM) and citric acid (100 mM). A stock solution of 80 mg/100 mL of each of the TMZ esters (3h, 3i, 3j, 3k, 3l and 3n) were prepared in DMSO. The control reaction, without enzyme, was prepared by adding 3000 μL of buffer to the reaction vessel along with 56.25 μL of the stock solution. The test reaction, with enzyme, was prepared by adding 2999 μL of buffer to the reaction vessel along with 56.25 μL of TMZ ester. The final concentration of TMZ esters in the reaction vessels was 1.47 mg/100 mL. Porcine liver esterase (1 μL) was added to the test reaction at zero time (minutes). Both the control and test reactions were then incubated at 37 °C. Aliquots of 200 μL were transferred from the reaction vessels to 2 mL Eppendorf tubes, at 3 minute intervals for 30 minutes. The reaction was quenched by adding 200 μL of acetonitrile. […]

[3] = initial screening, CellTiter-Glo, read-out: IC50 against U87-MG cells
[4] = lead analogues (Table 2), read-out: IC50 U87-MG

Compound: Cn1nnc2c(C(N)=O)ncn2c1=O [TMZ, 3-methyl-4-oxo-imidazo[5,1-d][1,2,3,5]tetrazine-8-carboxamide, reference compound]
- IC50 (U87-MG cells; [3]): 696 ± 79 µM
- IC50 (U87-MG cells; [4]): 621 ± 66 µM
- IC50 (1321-N1): 783 ± 40 µM
- IC50 (GOS-3): 696 ± 16 µM
- IC50 (SVGp12): 239 ± 6 µM
- reduction of viability of MGMT devoid cells (BTNW914 (MGMT−); at 15 and 75 μM): approximately 20%
- cytotoxicity against MGMT positive patient derived primary culture (BTNW374 (MGMT+); BTNW374, clinically relevant concentrations up to 75 μM): TMZ resistance
- brain-tumour concentration [1]: 15 µM
- brain-tumour concentration as share of plasma concentration [1]: approximately 20%
- time frame of maximum intracranial concentration [1]: approximately 2 ± 0.8 hours

Compound: COc1ccc(OC(=O)c2ncn3c(=O)n(C)nnc23)cc1 [Analogue 3h, 4-Methoxyphenyl 3-methyl-4-oxo-3,4-dihydroimidazo [5,1-d][1,2,3,5] tetrazine-8-carboxylate]
- IC50 (U87-MG cells; [3]): 134 ± 7 µM
- IC50 (U87-MG cells; [4]): 134 ± 7 µM
- IC50 (1321-N1): 183 ± 1 µM
- IC50 (GOS-3): 183 ± 5 µM
- IC50 (SVGp12): 44 ± 2 µM
- IC50 (BTNW914 (MGMT−)): < 15 µM
- cytotoxicity against MGMT positive patient derived primary culture (BTNW374 (MGMT+); human, 144 h, 75 μM): generated cytotoxicity at 75 μM
- Time taken to hydrolyse 50% of the ester [2]: 7.3 min
- melting point: 172 °C

Compound: Cc1ccc(OC(=O)c2ncn3c(=O)n(C)nnc23)cc1 [Analogue 3n, p-Tolyl 3-methyl-4-oxo-3,4-dihydroimidazo[5,1-d][1,2,3,5]tetrazine-8-carboxylate]
- IC50 (U87-MG cells; [3]): 376 ± 62 µM
- IC50 (U87-MG cells; [4]): 376 ± 62 µM
- IC50 (1321-N1): 238 ± 8 µM
- IC50 (GOS-3): 314 ± 38 µM
- IC50 (SVGp12): 215 ± 26 µM
- reduction in viability against MGMT devoid GBM cells (BTNW914 (MGMT−); at 75 μM): greater than 50%
- cytotoxicity against MGMT positive patient derived primary culture (BTNW374 (MGMT+); human, 144 h, 75 μM): generated cytotoxicity at 75 μM
- melting point: 164 °C

Compound: Cn1nnc2c(C(=O)Oc3ccc(C#N)cc3)ncn2c1=O [Analogue 3k, 4-Cyanophenyl 3-methyl-4-oxo-3,4-dihydroimidazo[5,1-d][1,2,3,5]tetrazine-8-carboxylate]
- IC50 (U87-MG cells; [3]): 138 ± 7 µM
- IC50 (U87-MG cells; [4]): 137 ± 7 µM
- IC50 (1321-N1): 103 ± 7 µM
- IC50 (GOS-3): 151 ± 4 µM
- IC50 (SVGp12): 36 ± 3 µM
- IC50 (BTNW914 (MGMT−)): < 15 µM
- cytotoxicity against MGMT positive patient derived primary culture (BTNW374 (MGMT+); human, 144 h, 75 μM): generated cytotoxicity at 75 μM
- Time taken to hydrolyse 50% of the ester [2]: 13.7 min
- melting point: 192 °C

Compound: Cn1nnc2c(C(=O)Oc3ccc([N+](=O)[O-])cc3)ncn2c1=O [Analogue 3i, 4-Nitrophenyl 3-methyl-4-oxo-3,4-dihydroimidazo [5,1-d][1,2,3,5] tetrazine-8-carboxylate]
- IC50 (U87-MG cells; [3]): 142 ± 3 µM
- IC50 (U87-MG cells; [4]): 141 ± 3 µM
- IC50 (1321-N1): 104 ± 4 µM
- IC50 (GOS-3): 91 ± 1 µM
- IC50 (SVGp12): 39 ± 2 µM
- IC50 (BTNW914 (MGMT−)): < 15 µM
- cytotoxicity against MGMT positive patient derived primary culture (BTNW374 (MGMT+); human, 144 h, 75 μM): generated cytotoxicity at 75 μM
- melting point: 190 °C
